Assay results from ChEMBL document CHEMBL2375331, “Daphnane-type diterpenes with inhibitory activities against human cancer cell lines from Daphne genkwa” (Bioorg Med Chem Lett, 2013).

Assays:
Format in all cases: functional, cell-based
[1] = system: MCF7; assay: Cytotoxicity against human MCF7 cells after 48 hrs by MTT assay; settings: MCF7, 48 h
[2] = system: HepG2; assay: Cytotoxicity against human HepG2 cells after 48 hrs by MTT assay; settings: HepG2, 48 h
[3] = system: HT-1080; assay: Cytotoxicity against human HT1080 cells after 48 hrs by MTT assay; settings: HT-1080, 48 h
[4] = Cytotoxicity against human A375-S2 cells after 48 hrs by MTT assay; settings: A375-S2, 48 h
[5] = system: K562; assay: Cytotoxicity against human K562 cells after 48 hrs by MTT assay; settings: K562, 48 h
[6] = system: HCT-116; assay: Cytotoxicity against human HCT116 cells after 48 hrs by MTT assay; settings: HCT-116, 48 h
[7] = system: HeLa; assay: Cytotoxicity against human HeLa cells after 48 hrs by MTT assay
[8] = system: U-937; assay: Cytotoxicity against human U937 cells after 48 hrs by MTT assay; settings: U-937, 48 h
[9] = system: A549; assay: Cytotoxicity against human A549 cells after 48 hrs by MTT assay; settings: A549, 48 h
[10] = system: HL-60; assay: Cytotoxicity against human HL60 cells after 48 hrs by MTT assay; settings: HL-60, 48 h

Row | SMILES | IC50 [1] [µM] | IC50 [2] [µM] | IC50 [3] [µM] | IC50 [4] [µM] | IC50 [5] [µM] | IC50 [6] [µM] | IC50 [7] [µM] | IC50 [8] [µM] | IC50 [9] [µM] | IC50 [10] [µM]
1 | C=C(C)[C@]12C[C@@H](C)[C@@]34O[C@@]5(CCCCCCC[C@@H](C)[C@H]6[C@H](C)C(=O)[C@@](O)([C@H](O)[C@@]7(CO)O[C@H]7[C@H]3[C@H]1O5)[C@@H]64)O2 [WIKSTROELIDE E] | > 50 | 11.4 | 15.1 | 29 | 24 | 29.9 | 17.1 | 19.5 | 19.3 | 22.1
2 | C=C(C)[C@@]12O[C@@]3(/C=C/C=C/CCCCC)O[C@@H]1[C@@H]1[C@@H]4O[C@]4(CO)[C@@H](O)[C@]4(O)C(=O)C(C)=C[C@H]4[C@@]1(O3)[C@H](C)[C@H]2OC(C)=O [YUANHUADINE] | 4.11 | 26.3 | < 0.1 | 15.8 | 22.2 | 32.6 | 17.1 | 14.7 | > 50 | 30.1
3 | C=C(C)[C@@]12OC3(c4ccccc4)O[C@@H]1[C@@H]1[C@H](O)[C@](O)(CO)[C@@H](O)[C@]4(O)C(=O)C(C)=C[C@H]4[C@@]1(O3)[C@H](C)[C@H]2OC(=O)c1ccccc1 [YUANHUAOATE B] | 0.37 | 25.1 | 0.59 | 23.3 | 21.3 | 26.5 | 21 | 14.4 | 15.9 | 27
4 | C=C(C)[C@@]1(O)[C@H](OC(=O)/C=C/C=C/CCCCC)[C@@H]2[C@@H]3O[C@]3(CO)[C@@H](O)[C@]3(O)C(=O)C(C)=C[C@H]3[C@@]2(O)[C@H](C)[C@H]1OC(=O)c1ccccc1 [YUANHUAOATE E] | > 50 | 11.1 | 18.4 | 26.5 | 29 | 16.4 | 16.7 | 11.6 | 13.3 | 18.5
